The numbers were not newly measured in US20250319053A1, “INHIBITORS OF THE PEPTIDYL-PROLYL CIS/TRANS ISOMERASE (PIN1), COMBINATIONS AND USES THEREOF” (DANA-FARBER CANCER INSTITUTE, INC., priority 2021, published 2025), which cites them from elsewhere.

This data set relates to advanced PDAC patients. The conditions noted are these: cited from earlier work.

Regarding `Nc1ccn([C@@H]2O[C@H](CO)[C@@H](O)C2(F)F)c(=O)n1` [GEM, gemcitabine, reference compound], the “overall survival (OS)” value was 6.6 month and the response rate is given as 23.8%.
